Assay results: ChEMBL document CHEMBL1138204, “Low-calcemic, highly antiproliferative, 1-difluoromethyl hybrid analogs of the natural hormone 1alpha,25-dihydroxyvitamin D3: design, synthesis, and preliminary biological evaluation” (J Med Chem, 2006)

Key:
[1] = target: T1, Vitamin D3 receptor (Homo sapiens) (UniProt P11473)
T1 sequence (whole entry): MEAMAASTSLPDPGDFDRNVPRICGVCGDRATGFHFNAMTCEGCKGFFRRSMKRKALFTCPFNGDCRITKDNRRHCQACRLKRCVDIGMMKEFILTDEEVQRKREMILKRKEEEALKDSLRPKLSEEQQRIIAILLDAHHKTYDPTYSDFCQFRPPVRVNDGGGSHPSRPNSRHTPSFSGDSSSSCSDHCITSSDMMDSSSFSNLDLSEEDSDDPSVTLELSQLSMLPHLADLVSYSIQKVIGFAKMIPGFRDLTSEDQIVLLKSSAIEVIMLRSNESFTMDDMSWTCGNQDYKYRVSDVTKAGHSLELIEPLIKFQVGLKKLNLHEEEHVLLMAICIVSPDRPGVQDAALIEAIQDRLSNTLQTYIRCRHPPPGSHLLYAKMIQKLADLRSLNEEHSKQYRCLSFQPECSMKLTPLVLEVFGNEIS
Description: Stabilization of human [35S]VDR against trypsin digestion by protease assay

Vitamin D3 receptor = target: T2, Vitamin D3 receptor (Homo sapiens, UniProt P11473); test: Displacement of [3H]1,25-dihydroxyvitamin D3 from human VDR by HAP assay
T2 sequence (P11473 whole entry): T1 sequence (whole entry)

[2] = Antiproliferative activity against murine keratinocytes; type: functional; conditions: Mus musculus, Keratinocyte; read-out: ED50 (the source's name)
[3] = target: T1, Vitamin D3 receptor (Homo sapiens); conditions: CV-1
Description: Activity on human VDR-mediated transcription of osteocalcin VDRE fused to thymidine kinase promoter/growth hormone reporter gene in CV1 cells

Rattus norvegicus = species on record: Rattus norvegicus; test: Calcemic activity in Sprague-Dawley rat measured as urinary calcium excretion relative to calcitriol; type: functional, Urine

With C=C1/C(=C\C=C2/CCC[C@]3(C)[C@@H]([C@H](C)CCCC(C)(C)O)CC[C@@H]23)C[C@@H](O)C[C@@H]1C(F)F the ED50 [1] was 500 nM, the IC50 (Vitamin D3 receptor) was 30 nM and the EC50 [2] was 150 nM. It also gave an ED50 [3] of 390 nM.
For C=C1/C(=C\C=C2/CCC[C@]3(C)[C@@H]([C@@H](C)OCCCC(O)(CC)CC)CC[C@@H]23)C[C@@H](O)C[C@@H]1C(F)F, the ED50 [1] was 100 nM, the IC50 (Vitamin D3 receptor) was 19.5 nM and the EC50 [2] was 7 nM. The ED50 [3] was 3 nM and the Activity (Rattus norvegicus) was 5%.
C=C1/C(=C\C=C2/CCC[C@]3(C)C([C@H](C)CCC(F)(F)C(O)(CC)CC)=CC[C@@H]23)C[C@@H](O)C[C@@H]1C(F)F gave an ED50 [1] of 4 nM, an IC50 (Vitamin D3 receptor) of 50 nM and an EC50 [2] of 2 nM. It also gave an ED50 [3] of 0.6 nM and an Activity (Rattus norvegicus) of 16%.
